Experimental findings from publication PMC9320114 (Molecules, 2022) are described below.

The target in test [1] is human butyrylcholinesterase (hBChE) (Homo sapiens, UniProt P06276). The test is described as follows: biochemical. In kind it is biochemical. How it is done:
(§1) Enzyme solutions were prepared by diluting the concentrated enzyme stock solutions (4.6 mg/mL in 10 mM MES-NaOH buffer, pH 6.5) in a sodium phosphate-buffered solution (0.1 M, pH 8.0). […] The final organic solvent (DMSO) content was always 1% (v/v). Reactions were initiated by adding the substrate to the enzyme and inhibitor, which were preincubated for 5 min. […] To determine the blank value (b), the enzyme solution was replaced by a phosphate-buffered solution. The initial velocity (v) was calculated from the slope of the linear trend obtained, with each measurement performed in triplicate. The inhibitory potencies were expressed as RA=(vi − b)/(vo − b), where vi is the velocity in the presence of the test compounds and vo is the control velocity in the presence of DMSO. Seven different concentrations of each compound were used for the IC50 measurements. IC50 values were obtained by plotting the residual enzyme activities against the applied inhibitor concentrations, fitting the experimental data to the 4-parameter Hill equation:(1) Y=Bottom+(Top−Bottom)/1+10^((LogIC50−X)×Hill Slope) where X is the logarithm of the inhibitor concentration, and Y is the residual activity. GraphPad Prism 8.2.0 (GraphPad Software, San Diego, CA, USA) was used for the fitting procedure.

For test [2], the target named is T1, murine acetylcholinesterase (mAChE) (Mus musculus, UniProt P21836).
T1 sequence (P21836 32-614): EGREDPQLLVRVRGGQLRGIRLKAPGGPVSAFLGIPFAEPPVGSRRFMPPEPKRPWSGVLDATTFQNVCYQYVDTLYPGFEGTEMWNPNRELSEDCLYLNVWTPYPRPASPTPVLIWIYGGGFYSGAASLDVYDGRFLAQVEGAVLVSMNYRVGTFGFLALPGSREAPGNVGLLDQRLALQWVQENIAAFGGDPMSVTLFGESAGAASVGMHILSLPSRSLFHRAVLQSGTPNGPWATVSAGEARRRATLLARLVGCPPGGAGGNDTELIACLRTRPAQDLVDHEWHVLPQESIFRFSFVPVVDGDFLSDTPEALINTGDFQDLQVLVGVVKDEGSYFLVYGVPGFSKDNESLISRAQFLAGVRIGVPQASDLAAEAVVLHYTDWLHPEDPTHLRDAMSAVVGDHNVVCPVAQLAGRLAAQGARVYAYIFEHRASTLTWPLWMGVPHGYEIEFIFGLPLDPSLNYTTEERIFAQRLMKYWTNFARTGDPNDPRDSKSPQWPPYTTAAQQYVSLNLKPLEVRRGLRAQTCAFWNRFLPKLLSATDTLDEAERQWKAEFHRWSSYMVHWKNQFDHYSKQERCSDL
The test is described as follows: biochemical. In kind it is biochemical. Particulars: for RA (mAChE, 10 µM) / remaining activity at 10 µM / mAChE RA (%): residual activity at 10 µM; for RA (mAChE, 10 µM): Figure 1; for remaining activity at 10 µM: read-out: mAChE RA (%). The procedure:
as §1

Setting [3] is: residual activity at 10 µM; Mini Library screen, Table S1.
[4] abbreviates: residual activity at 10 µM; Table 1; read-out: hBChE RA (%).
[5] abbreviates: residual activity at 10 µM; Table 4; read-out: hBChE RA (%).

Where two headings read alike, the source gives them in different places.

Chain of human butyrylcholinesterase (hBChE) (P06276 29-602): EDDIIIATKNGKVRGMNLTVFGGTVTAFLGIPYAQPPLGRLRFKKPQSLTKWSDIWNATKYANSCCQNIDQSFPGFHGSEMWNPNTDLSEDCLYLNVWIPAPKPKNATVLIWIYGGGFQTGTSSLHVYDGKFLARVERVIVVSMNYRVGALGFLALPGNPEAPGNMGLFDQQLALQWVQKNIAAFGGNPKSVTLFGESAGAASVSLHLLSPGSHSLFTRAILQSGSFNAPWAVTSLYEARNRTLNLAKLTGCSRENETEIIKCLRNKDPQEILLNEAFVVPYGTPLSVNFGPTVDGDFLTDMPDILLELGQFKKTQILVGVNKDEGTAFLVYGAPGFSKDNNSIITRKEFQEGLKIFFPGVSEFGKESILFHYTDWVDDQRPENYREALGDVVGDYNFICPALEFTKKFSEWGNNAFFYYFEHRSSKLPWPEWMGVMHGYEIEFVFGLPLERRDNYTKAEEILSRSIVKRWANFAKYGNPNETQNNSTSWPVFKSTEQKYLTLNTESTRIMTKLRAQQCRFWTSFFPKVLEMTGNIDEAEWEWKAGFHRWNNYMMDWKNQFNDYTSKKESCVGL

Broadly, the IC50 is the point on the concentration scale where inhibition reaches its midpoint. Turning to `CCCCCCN(Cc1ccc(C#Cc2ccc(CCCC)cc2)cc1)c1ccc(O)c(C(=O)O)c1` [MS-ML24], the 50% inhibitory concentration (IC50) in test [1] (Table 1; IC50 ± SEM; read-out: hBChE IC50) came out at 949 ± 46 nM; in test [2] (Mini Library screen, Table S1), 414 ± 40 nM; in test [2] (Table 1, IC50 ± SEM), 294 ± 25 nM. Moreover, the “hBChE RA (%)” value in test [1] (setting [3]) stood at 60%. The remaining activity at 10 µM was 9% in test [1] (setting [4]) and 1% in test [2] (Table 1). Also, the “RA (mAChE, 10 µM)” value in test [2] was 1%.

In the case of `C1=C(c2ccccc2)CCN(CCCCc2c[nH]c3ccccc23)C1` [MS-ML10], in test [1] (Table 4; IC50 ± SEM; read-out: hBChE IC50), the IC50 is 35.6 ± 0.3 nM. In addition, the results for the remaining activity at 10 µM in test [1] (setting [5]) and in test [2] (Table 4) were 0% and 64%, respectively. For the same compound, the “mAChE RA (%)” value in test [2] (Mini Library screen, Table S1) is listed as 64%.

Turning to `CCCCCCN(Cc1ccc(C#Cc2ccc(CCCC)cc2)cc1)c1ccc(F)c(C(=O)O)c1` [MS-ML26], the “hBChE RA (%)” value in test [1] (setting [3]) turned out to be 68%. Further, the figures for the remaining activity at 10 µM in test [1] (setting [4]) and in test [2] (Table 1) were 57% and 8%, respectively. For the same compound, the IC50 worked out at 359 ± 39 nM in test [2] (Mini Library screen, Table S1) and 275 ± 60 nM in test [2] (Table 1, IC50 ± SEM). For the same compound, the “RA (mAChE, 10 µM)” value in test [2] came to 8%.

As for `CCCCc1nc2ccn(CC(=O)N3CCCCC3)c(=O)c2n1Cc1ccc(-c2ccccc2S(=O)(=O)NC(=O)OCc2ccccc2)cc1F` [MS-ML05], the “hBChE RA (%)” value in test [1] (setting [3]) came to 91%. Moreover, in test [2] (Mini Library screen, Table S1), the “mAChE RA (%)” value was 96%.

For `Oc1ccc2[nH]cc(CCCCN3CC=C(c4ccccc4)CC3)c2c1` [MS-ML11], the IC50 in test [1] (read-out: hBChE IC50; Table 4; IC50 ± SEM) was determined as 78.8 ± 10.3 nM. The remaining activity at 10 µM was 0% in test [1] (setting [5]) and 82% in test [2] (Table 4). Moreover, the “mAChE RA (%)” value in test [2] (Mini Library screen, Table S1) was determined as 82%.

Consider `CCCCc1nc2ccn(Cc3ccccc3)c(=O)c2n1Cc1ccc(-c2ccccc2-c2nnn[nH]2)cc1` [MS-ML03], for which the “hBChE RA (%)” value in test [1] (setting [3]) is recorded as 87%. The “mAChE RA (%)” value in test [2] (Mini Library screen, Table S1) amounted to 92%.

For `CCCCCCN(Cc1ccc(C#Cc2ccc(CCCC)cc2)cc1)C(=O)c1ccc(O)c(C(=O)O)c1` [MS-ML25], the “hBChE RA (%)” value in test [1] (setting [3]) is reported as 108%. Moreover, the remaining activity at 10 µM in test [1] (setting [4]) stood at 55%; in test [2] (Table 1), 3%. For the same compound, the IC50 in test [2] (Mini Library screen, Table S1) stood at 369 ± 55 nM; in test [2] (Table 1, IC50 ± SEM), 485 ± 79 nM. In addition, the “RA (mAChE, 10 µM)” value in test [2] is reported as 3%.

In the case of `O=C(OC[C@H]1CCCN1c1ccnc2ncnn12)c1ccc(Oc2ccccc2)nc1` [MS-ML31], the “hBChE RA (%)” value in test [1] (setting [3]) is listed as 84%. Also, in test [2] (Mini Library screen, Table S1), the “mAChE RA (%)” value was determined as 89%.

In the case of `O=C(Nc1ccc(Oc2ccncc2)cc1)Nc1cc(C(F)(F)F)ccc1-n1cncn1` [MS-ML80], the “hBChE RA (%)” value in test [1] (setting [3]) turned out to be 73%. For the same compound, in test [2] (Mini Library screen, Table S1), the “mAChE RA (%)” value is 95%.
